In patent US20220330594A1 (WisTa Laboratories Ltd., priority 2019, published 2022):
Structures can show the parent of a compound that is named as a salt.

Columns and labels:
[1] = test system: acetylcholine (ACh) levels in hippocampus; assay: Hippocampal acetylcholine levels by implanted microdialysis probe and HPLC; assay type: in vivo; details: wild-type mice
Description: […] Rivastigmine was administered subcutaneously with an Alzet minipump whereas LMTM was administered by oral gavage. Levels of ACh were measured in hippocampus using an implanted microdialysis probe and HPLC analysis of the extracellular fluid.
Data are presented as group averages and standard errors of mean and were analysed using parametric statistics, with alpha set to 0.05.

synaptophysin = assay: Quantitative immunohistochemistry of synaptophysin in brain sections; assay type: in vivo; details: wild-type mice
Description: (§1) Wild-type and L1 mice (n=7-16 for each group) were pre-treated with rivastigmine (0.1 or 0.5 mg/kg/day) or memantine (2 or 20 mg/kg/day) or vehicle for 5 weeks by gavage. For the following 6 weeks, LMTM (5 and 15 mg/kg) or vehicle were added to this daily treatment regime, also by gavage. Animals were tested behaviourly during weeks 10 and 11 using a problem solving task in the open field water maze and then sacrificed for immunohistochemical and other tissue analyses.

Mitochondrial complex IV = assay: Direct measurement of mitochondrial complex IV activity after treatment; assay type: in vivo; details: wild type mice
Description: as §1, with “The treatment schedule used to study the negative interaction between symptomatic treatments and LMTM was designed to model the clinical situation in which subjects are first treated chronically with a cholinesterase inhibitor or memantine before receiving LMTM. In what follows, we summarise some of the key results obtained for the AChEI, rivastigmine. Wild-type” for “Wild-type”

wild-type mice = assay: Behaviour: problem solving task in the open field water maze; assay type: in vivo
Description: as §1, with “The treatment schedule used to study the negative interaction between symptomatic treatments and LMTM was designed to model the clinical situation in which subjects are first treated chronically with a cholinesterase inhibitor or memantine before receiving LMTM. In what follows, we summarise some of the key results obtained for the AChEI, rivastigmine. Wild-type” for “Wild-type”

[2] = test system: ACh levels in the hippocampus; assay: Hippocampal ACh microdialysis with rivastigmine and scopolamine in the perfusion fluid; assay type: in vivo, wild type mice
Description: Under the condition of cholinesterase inhibition used in these experiments (a very small amount of a cholinesterase inhibitor, 100 nanomolar rivastigmine, added to the perfusion fluid), ACh levels in the hippocampus rise, and when they rise strongly enough, they limit additional ACh release by activating pre-synaptic muscarinic receptors of the M2/M4 subtype (so-called negative feedback receptors).
In this situation, adding scopolamine ([…]) to the perfusion fluid blocks these presynaptic receptors and, as a consequence, ACh levels rise by 3-5 fold. The fact that LMTM is not additive with rivastigmine in these experiments supports the conclusion that LMTM has a different mechanism of action from rivastigmine. In other words, although LMTM has been described as being a weak inhibitor of cholinesterases in high concentrations, the present effects seem to be unrelated to cholinesterase inhibition, because there is no additive effect with small quantities of rivastigmine.

tau transgenic L1 mice = assay: Treatment effects of LMTM and rivastigmine in tau transgenic L1 mice; assay type: in vivo; details: results not shown
Description: In the L1 mouse model which was used in some of the present studies, there is over-expression of a three-repeat tau fragment encompassing residues 296-390 of the 2N4R tau isoform under the control of the Thy 1 promotor in an NMRI mouse strain (WO2002/059150). This fragment corresponds to the segment of tau first identified within the proteolytically stable core of the PHF (Wischik et al., 1988a; Wischik et al., 1988b) and recently confirmed by cryo-electronmicroscopy of PHFs in AD and tau filaments in Pick's disease (Fitzpatrick et al., 2017; Falcon et al., 2018).
The treatment schedule used to study the negative interaction between symptomatic treatments and LMTM was designed to model the clinical situation in which subjects are first treated chronically with a cholinesterase inhibitor or memantine before receiving LMTM. In what follows, we summarise some of the key results obtained for the AChEI, rivastigmine. […]
For measurement of acetylcholine (ACh) levels in hippocampus, animals (wild-type or L1) were treated with LMTM (5 mg/kg/day for 2 weeks) after prior treatment for 2 weeks with or without rivastigmine (0.5 mg/kg/day). […] Levels of ACh were measured in hippocampus using an implanted microdialysis probe and HPLC analysis of the extracellular fluid.

[3] = LMTM alone 5 or 15 mg/kg/day, approximate rounded percentage

| Structure (SMILES) | increase in basal ACh levels in hippocampus ([1]; LMTM 5 mg/kg/day for 2 weeks, oral gavage, significant (FIG. 1A)) [fold] | ACh release, ↑ (increase) [1, 3] | Synaptophysin, ↑ (increase) (synaptophysin; [3]) | increase in mean synaptophysin levels (synaptophysin; mean of hippocampus, visual cortex, diagonal band and septum, LMTM alone (FIG. 1B)) [fold] | complex IV activity following LMTM treatment (Mitochondrial complex IV) | spatial recognition memory (wild-type mice) | effect on ACh levels in scopolamine experiments ([2]; wild type mice, 100 nanomolar rivastigmine in the perfusion fluid, scopolamine blocking M2/M4 receptors) | treatment effects in L1 mice compared with wild-type mice (tau transgenic L1 mice) | rise in ACh levels in the hippocampus ([2]; scopolamine (μM) added to perfusion fluid containing 100 nanomolar rivastigmine) |
| --- | --- | --- | --- | --- | --- | --- | --- | --- | --- |
| CN(C)c1ccc2c(c1)Sc1cc(N(C)C)ccc1N2 [LMTM, hydromethylthionine mesylate] | 2 | ↑ × 200% | ↑ × 300% | 3 | did not show any increase | not associated with improvement | less than that seen with rivastigmine alone | larger and more generalised |  |
| CN1[C@@H]2C[C@@H](OC(=O)[C@H](CO)c3ccccc3)C[C@H]1[C@@H]1O[C@@H]12 [scopolamine, reference compound] |  |  |  |  |  |  |  |  | 3-5 fold |
